Laboratory results published in patent US20020156115A1, “Insecticidal and acaricidal composition, and methods of using the same” (AGRO-KANESHO CO., LTD., priority 1999, published 2002).

Key:
Format in all cases: in vivo
[1] = test system: eggs of two-spotted red spiders (Tetranychus telarius); test: Acaricidal effect on eggs of two-spotted red spiders, ovicidal rate, 500 ppm spray; details: eggs on green bean leaf disc; spray 3.5 ml; concentration 500 ppm; 8 days after treatment
Description: Acaricidal Effect on Eggs of Two-Spotted Red Spiders (Tetranychus telarius) 5 female imagoes of two-spotted red spiders were released on a green been leaf disc (diameter: 3 cm). Then, the imagoes were left to lay eggs on the leaf disc for 20 hours and then removed therefrom. The present acaricide which had been prepared according to Preparation Example 1 was diluted with water to a predetermined concentration. 3.5 ml of the preparation thus obtained was sprayed with a rotary spraying column (Mizuho Rika) over the disc (concentration: 500 ppm, repetition: twice). 8 days after the treatment, the number of unhatched eggs was counted to determine the ovicidal rate (%).

[2] = test system: two-spotted red spiders (Tetranychus telarius); test: Acaricidal effect on two-spotted red spiders, imago-killing rate, 500 ppm leaf immersion; details: female imagoes on green bean leaf, leaf immersion about 5 seconds, concentration 500 ppm, fifth day after treatment, 25° C.
Description: (§1) Acaricidal Effect on Larvae of Two-Spotted Red Spiders (Tetranychus telarius): A stem of green bean seedling having only one primary left was placed in a test tube (capacity: 50 ml) containing water. 15 female imagoes of two-spotted red spiders were put on each leaf. One day after, the leaf having the two-spotted red spiders was immersed (about 5 seconds) in the present insecticide diluted with water, which had been prepared according to the Preparation Example, (concentration: 500 ppm, repetition: twice). They were kept in a constant-temperature room at 25° C. On the fifth day after the treatment, the female imagoes on the leaf of the green bean seedling were observed. The imago-killing rate (%) was determined on the basis of the results of the observation to obtain the results shown in Table 6.

[3] = test system: two-spotted red spiders (Tetranychus telarius); test: Acaricidal effect of a low concentration (12.5 ppm) on two-spotted red spiders; details: leaf immersion, female imagoes, fifth day after treatment, 25° C.
Description: as §1, with “A” for “Acaricidal Effect on Larvae of Two-Spotted Red Spiders (Tetranychus telarius): A”
Acaricidal Effect of a Low Concentration of Acaricide on Larvae of Two-Spotted Red Spiders (Tetranychus telarius)
The same tests as those of Test Example 2 were repeated except that the concentration of the acaricide was changed to 12.5 ppm.

Row | Compound | Ovicidal rate (%) [1] | Acaricidal rate (%) [2] | acaricidal effect [3]
1 | CO/C=C(/C(=O)OC)c1c(OCc2ccc(OC(F)F)cc2)c(C(F)(F)F)nn1C [Table 2-30] | 100% | 100% | 
2 | CO/C=C(/C(=O)OC)c1c(OCc2ccc(Oc3ncc(C(F)(F)F)cc3Cl)cc2)c(C)nn1C [Table 2-13] | 100% | 100% | 
3 | CO/C=C(/C(=O)OC)c1c(OCc2ccc(Cl)c(Cl)c2)c(C)nn1C [Table 2-16] | 80% | 96% | 
4 | CO/N=C(/C(=O)OC)c1c(CON=C(C)c2ccc(C(F)(F)F)cc2)c(C)nn1C [Table 3-90] | 100% | 100% | 
5 | CO/C=C(/C(=O)OC)c1c(OCc2sc(Oc3ccc(C(F)(F)F)cc3)nc2C)c(C)nn1C [Table 2-14] | 100% | 100% | 
6 | CO/C=C(/C(=O)OC)c1c(OCc2cccc(Oc3ccc(Cl)cc3)c2)c(C)nn1C [Table 2-9] | 100% | 100% | 
7 | CO/C=C(/C(=O)OC)c1c(C#Cc2cc(C(F)(F)F)cc(C(F)(F)F)c2)c(-c2ccc(C(F)(F)F)cc2)nn1C [Table 1-36] |  |  | 100%
8 | CO/C=C(/C(=O)OC)c1c(OCc2cccc(Oc3cccc(C(F)(F)F)c3)c2)c(C)nn1C [Table 2-6] | 100% | 100% | 
9 | CO/C=C(/C(=O)OC)c1c(C#Cc2cc(C(F)(F)F)cc(C(F)(F)F)c2)c(C(C)(C)C)nn1C [Table 1-18] | 100% | 100% | 100%
10 | CCn1nc(C(F)(F)F)c(C#Cc2nc(OC(C)C)cc(C(F)(F)F)n2)c1/C(=C\OC)C(=O)OC [Table 1-37] | 100% | 100% | 100%
11 | CNC(=O)C(=NOC)c1c(CON=C(C)c2ccc(C(F)(F)F)cc2)c(C)nn1C [Table 3-92] | 100% | 100% | 
12 | CO/C=C(/C(=O)OC)c1c(C#Cc2ccc(OC(F)F)cc2)c(C)nn1C [Table 1-30] | 100% | 100% | 100%
13 | CO/C=C(/C(=O)OC)c1c(OCc2cnc(OC(C)C(F)(F)F)s2)c(C)nn1C (racemic) [Table 2-19] | 100% | 100% | 
14 | COC=C(C(=O)OC)c1c(C#Cc2cc(C(F)(F)F)cc(C(F)(F)F)c2)c(C(F)(F)F)nn1C [Table 1-20, Methyl α-[1-methyl-3-trifluoromethyl-4{3,5-bis(trifluoromethyl)phenylethynyl}-5-pyrazole]-β-methoxyacrylate] | 100% | 100% | 100%
15 | CO/C=C(/C(=O)OC)c1c(OCc2ccccc2C(F)(F)F)c(C)nn1C [Table 2-23] | 100% | 100% | 
16 | CO/C=C(/C(=O)OC)c1c(OCc2cccc(Oc3ccc(F)cc3)c2)c(C)nn1C [Table 2-21] | 100% | 100% | 
17 | CO/C=C(/C(=O)OC)c1c(COc2ccc(C(F)(F)F)cc2)c(C)nn1C [Table 3-61] | 100% | 100% | 
18 | CCn1nc(C(F)(F)F)c(C#Cc2cc(C(F)(F)F)cc(C(F)(F)F)c2)c1/C(=C/OC)C(=O)OC [Table 1-40] | 100% | 100% | 100%
19 | CO/C=C(/C(=O)OC)c1c(OCc2cc(C(F)(F)F)ccc2C(F)(F)F)c(C)nn1C [Table 2-25] | 100% | 100% | 
20 | CO/C=C(/C(=O)OC)c1c(CSc2ccc(C(F)(F)F)cc2)c(C)nn1C [Table 3-66] | 100% | 100% | 
21 | CO/C=C(/C(=O)OC)c1c(OCc2cccc(Oc3ccc(Cl)c(Cl)c3)c2)c(C)nn1C [Table 2-20] | 100% | 100% | 

Row | Compound | Ovicidal rate (%) [1] | Acaricidal rate (%) [2] | acaricidal effect [3]
22 | CO/C=C(/C(=O)OC)c1c(OCc2ccc(Oc3ccc(Cl)c(Cl)c3)cc2)c(C)nn1C [Table 2-10] | 100% | 100% | 
23 | CO/C=C(/C(=O)OC)c1c(OCc2cc(C(F)(F)F)cc(C(F)(F)F)c2)c(C(F)(F)F)nn1C [Table 2-26] | 100% | 100% | 100%
24 | CO/C=C(/C(=O)OC)c1c(C#Cc2cc(C)cc(C)c2)c(C)nn1C [Table 1-9] | 80% | 96% | 
25 | CO/C=C(/C(=O)OC)c1c(COc2ccc(OC(F)(F)F)cc2)c(C)nn1C [Table 3-63] | 100% | 100% | 
26 | CO/C=C(/C(=O)OC)c1c(OCc2ccc(F)cc2C(F)(F)F)c(C)nn1C [Table 2-24] | 100% | 100% | 
27 | COC=C(C(=O)OC)c1c(OCc2ccc(Cl)cc2Cl)c(C)nn1C [Table 2-18] | 100% | 100% | 
28 | CCc1nn(C)c(/C(=N\OC)C(=O)NC)c1CON=C(C)c1ccc(OC(F)(F)F)cc1 [Table 3-75] | 100% | 100% | 
29 | C#CCN(C(=O)OC)c1c(OCc2ccccc2)c(C)nn1C [Table 4-23] | 100% | 100% | 
30 | CO/C=C(/C(=O)OC)c1c(OCc2cc(C(C)(C)C)ccc2C)c(C)nn1C [Table 2-15] | 100% | 100% | 
31 | C#CCN(C(=O)OC)c1c(OCc2cc(Cl)ccc2Cl)c(C)nn1C [Table 4-40] | 100% | 100% | 
32 | CO/C=C(/C(=O)OC)c1c(OCc2cc(Cl)ccc2Cl)c(C)nn1C [Table 2-22] | 100% | 100% | 
33 | CO/C=C(/C(=O)OC)c1c(OCc2ccc(F)c(Oc3ccccc3)c2)c(C)nn1C [Table 2-7] | 100% | 100% | 
34 | CO/C=C(/C(=O)OC)c1c(OCc2cccc(Oc3ccc(C)cc3)c2)c(C)nn1C [Table 2-12] | 100% | 100% | 
35 | CCc1nn(CC)c(/C(=C\OC)C(=O)OC)c1OCc1nc(OC(C)C)cc(C(F)(F)F)n1 [Table 2-32] | 100% | 100% | 
36 | C#CCN(C(=O)OC)c1c(OCc2cccc(OCc3ccccc3)c2)c(C)nn1C [Table 4-85] | 100% | 100% | 
37 | CO/C=C(/C(=O)OC)c1c(OCc2cccc(Oc3ccc(C(F)(F)F)cc3Cl)c2)c(C)nn1C [Table 2-11] | 100% | 100% | 
38 | CCc1nn(CC)c(/C(=C\OC)C(=O)OC)c1OCc1nc(Cl)cc(C(F)(F)F)n1 [Table 2-33] | 100% | 100% | 
39 | CO/C=C(/C(=O)OC)c1c(OCc2ccc(OC(F)(F)F)cc2)c(C(F)(F)F)nn1C [Table 2-29] | 100% | 100% | 
40 | CO/C=C(/C(=O)OC)c1c(CON=C(C)c2cccc(OC(F)F)c2)c(C)nn1C [Table 3-102] | 100% | 100% | 
41 | CO/C=C(/C(=O)OC)c1c(OCc2ccc(Oc3ccc(C(F)(F)F)cc3)cc2)c(C)nn1C [Table 2-2] | 100% | 100% | 
